Results from PubChem BioAssay (NCI).
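All cell lines were grown in 96-well plates and treated with compound for 48 hours. TGI: total growth inhibition.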

Key:
Experiment in all cases: NCI anticancer screen, dose series, 48 h
786-0 renal = test system: 786-0 renal
A498 renal = test system: A498 renal
A549 NSCLC = test system: A549 NSCLC
ACHN renal = test system: ACHN renal
BT-549 breast = test system: BT-549 breast
CAKI-1 renal = test system: CAKI-1 renal
CCRF-CEM leukemia = test system: CCRF-CEM leukemia
COLO 205 colon = test system: COLO 205 colon
DU-145 prostate = test system: DU-145 prostate
EKVX NSCLC = test system: EKVX NSCLC
HCC-2998 colon = test system: HCC-2998 colon
HCT-116 colon = test system: HCT-116 colon
HCT-15 colon = test system: HCT-15 colon
HL-60(TB) leukemia = test system: HL-60(TB) leukemia
HOP-62 NSCLC = test system: HOP-62 NSCLC
HOP-92 NSCLC = test system: HOP-92 NSCLC
HS 578T breast = test system: HS 578T breast
HT29 colon = test system: HT29 colon
IGROV1 ovarian = test system: IGROV1 ovarian
K-562 leukemia = test system: K-562 leukemia
KM12 colon = test system: KM12 colon
LOX IMVI melanoma = test system: LOX IMVI melanoma
M14 melanoma = test system: M14 melanoma
MALME-3M melanoma = test system: MALME-3M melanoma
MCF7 breast = test system: MCF7 breast
MDA-MB-231 breast = test system: MDA-MB-231 breast
MDA-MB-435 = test system: MDA-MB-435
MDA-N = test system: MDA-N
MOLT-4 leukemia = test system: MOLT-4 leukemia
NCI-H226 lung = test system: NCI-H226 lung
NCI-H23 lung = test system: NCI-H23 lung
NCI-H460 lung = test system: NCI-H460 lung
NCI-H522 lung = test system: NCI-H522 lung
NCI/ADR-RES ovarian = test system: NCI/ADR-RES ovarian
OVCAR-3 ovarian = test system: OVCAR-3 ovarian
OVCAR-4 ovarian = test system: OVCAR-4 ovarian
OVCAR-5 ovarian = test system: OVCAR-5 ovarian
OVCAR-8 ovarian = test system: OVCAR-8 ovarian
PC-3 prostate = test system: PC-3 prostate
RPMI-8226 leukemia = test system: RPMI-8226 leukemia
RXF 393 renal = test system: RXF 393 renal
SF-268 CNS = test system: SF-268 CNS
SF-295 CNS = test system: SF-295 CNS
SF-539 CNS = test system: SF-539 CNS
SK-MEL-2 melanoma = test system: SK-MEL-2 melanoma
SK-MEL-28 melanoma = test system: SK-MEL-28 melanoma
SK-MEL-5 melanoma = test system: SK-MEL-5 melanoma
SK-OV-3 ovarian = test system: SK-OV-3 ovarian
SN12C renal = test system: SN12C renal
SNB-19 CNS = test system: SNB-19 CNS
SNB-75 CNS = test system: SNB-75 CNS
SR leukemia = test system: SR leukemia
SW-620 colon = test system: SW-620 colon
T-47D breast = test system: T-47D breast
TK-10 renal = test system: TK-10 renal
U251 CNS = test system: U251 CNS
UACC-257 melanoma = test system: UACC-257 melanoma
UACC-62 melanoma = test system: UACC-62 melanoma
UO-31 renal = test system: UO-31 renal

CC(C)NC(=O)OCc1c(COC(=O)NC(C)C)c(-c2ccc[n+](COC(=O)C3CCCCC3)c2)n2c1CCC2
TGI (786-0 renal): > 100 µM | TGI (A498 renal): 87.5 µM | TGI (A549 NSCLC): > 100 µM | TGI (ACHN renal): > 100 µM | TGI (BT-549 breast): > 100 µM | TGI (CAKI-1 renal): 68.6 µM | TGI (CCRF-CEM leukemia): > 100 µM | TGI (COLO 205 colon): > 100 µM | TGI (DU-145 prostate): > 100 µM | TGI (EKVX NSCLC): > 100 µM | TGI (HCC-2998 colon): > 100 µM | TGI (HCT-116 colon): > 100 µM | TGI (HCT-15 colon): > 100 µM | TGI (HL-60(TB) leukemia): > 100 µM | TGI (HOP-62 NSCLC): > 100 µM | TGI (HOP-92 NSCLC): > 100 µM | TGI (HS 578T breast): > 100 µM | TGI (HT29 colon): > 100 µM | TGI (IGROV1 ovarian): > 100 µM | TGI (K-562 leukemia): > 100 µM | TGI (KM12 colon): > 100 µM | TGI (LOX IMVI melanoma): > 100 µM | TGI (M14 melanoma): > 100 µM | TGI (MALME-3M melanoma): > 100 µM | TGI (MCF7 breast): > 100 µM | TGI (MDA-MB-231 breast): > 100 µM | TGI (MDA-MB-435): > 100 µM | TGI (MDA-N): > 100 µM | TGI (MOLT-4 leukemia): > 100 µM | TGI (NCI-H226 lung): > 100 µM | TGI (NCI-H23 lung): > 100 µM | TGI (NCI-H460 lung): > 100 µM | TGI (NCI-H522 lung): 58 µM | TGI (NCI/ADR-RES ovarian): > 100 µM | TGI (OVCAR-3 ovarian): > 100 µM | TGI (OVCAR-4 ovarian): > 100 µM | TGI (OVCAR-5 ovarian): > 100 µM | TGI (OVCAR-8 ovarian): > 100 µM | TGI (PC-3 prostate): > 100 µM | TGI (RPMI-8226 leukemia): > 100 µM | TGI (RXF 393 renal): > 100 µM | TGI (SF-268 CNS): > 100 µM | TGI (SF-295 CNS): > 100 µM | TGI (SF-539 CNS): > 100 µM | TGI (SK-MEL-2 melanoma): > 100 µM | TGI (SK-MEL-28 melanoma): > 100 µM | TGI (SK-MEL-5 melanoma): > 100 µM | TGI (SK-OV-3 ovarian): > 100 µM | TGI (SN12C renal): > 100 µM | TGI (SNB-19 CNS): > 100 µM | TGI (SNB-75 CNS): > 100 µM | TGI (SR leukemia): > 100 µM | TGI (SW-620 colon): > 100 µM | TGI (T-47D breast): > 100 µM | TGI (TK-10 renal): > 100 µM | TGI (U251 CNS): > 100 µM | TGI (UACC-257 melanoma): > 100 µM | TGI (UACC-62 melanoma): 87.4 µM | TGI (UO-31 renal): > 100 µM
